Experiments:
[1] = In vivo toxicity, histopathology; parameters: species or system mouse; details: for Sternum side effect, mice affected per mice tested / Long bones side effect, mice affected per mice tested: two weeks
From the text: Number of cured mice, i.e. mice with no metastases at experimental end points, were score. Intestines, skin samples, hearts, thoracic skeletons and limbs of these mice were fixed in 10% formalin, phosphate buffered (Sigma). Soft tissues were embedded in paraffin blocks, sectioned and stained with haematoxylin & eosin. Bones were first decalcified for 2 weeks before embedding, sectioning and staining. An experienced pathologist analyzed tissues for histopathological abnormalities. […] Furthermore, the cartilage ossification zone at the ends of the long bones was analysed for defects in the hypertrophic zone.

[2] = biological target: T1, human ALK5 (Homo sapiens, UniProt P36897); test: KinaseProfiler enzymatic activity inhibition; assay type: biochemical
T1 construct: purchased Eurofins (Kinase Profiler service)
T1 sequence (P36897 34-503): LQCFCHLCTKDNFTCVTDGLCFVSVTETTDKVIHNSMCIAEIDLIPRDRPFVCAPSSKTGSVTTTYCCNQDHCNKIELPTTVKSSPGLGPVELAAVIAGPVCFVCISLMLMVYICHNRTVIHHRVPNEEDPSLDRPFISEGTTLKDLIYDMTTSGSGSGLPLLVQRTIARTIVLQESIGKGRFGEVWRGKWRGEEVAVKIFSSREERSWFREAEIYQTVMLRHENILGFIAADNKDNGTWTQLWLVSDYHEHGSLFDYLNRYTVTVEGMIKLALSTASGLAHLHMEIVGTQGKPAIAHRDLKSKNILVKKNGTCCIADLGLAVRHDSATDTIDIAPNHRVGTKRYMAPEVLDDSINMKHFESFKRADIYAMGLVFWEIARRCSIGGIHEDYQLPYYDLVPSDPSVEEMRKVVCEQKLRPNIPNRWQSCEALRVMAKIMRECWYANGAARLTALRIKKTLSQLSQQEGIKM
Procedure: Briefly, human ALK5 was incubated with 8 mM MOPS pH 7.0, 0.2 mM EDTA, 1 mM MnCl2, 2 mg/mL casein, 10 mM MgAcetate and [γ-33P-ATP] (specific activity approx. 500 cpm/pmol, concentration as required). The reaction was initiated by the addition of the MgATP mix. After incubation for 40 minutes at room temperature, the reaction was stopped by the addition of a 3% phosphoric acid solution. 10 μL of the reaction was then spotted onto a P30 filtermat and washed three times for 5 minutes in 75 mM phosphoric acid and once in methanol prior to drying and scintillation counting.
Compounds were tested using a 9-point curve with half-Log serial dilutions. The top concentration tested was 10 μM. Test compounds were prepared in 100% DMSO.

[3] = test system: HEK293T cells; test: In vitro cytotoxicity, XTT assay; assay type: cell-based; details: 24h
Procedure: To assess the toxicity of the compound of formula I in vitro, HEK293T cells were seeded in 96-well plates and treated for 24h with indicated compounds. DMSO was used as a control.
Cell viability was assessed by the XTT assay (Biological Industries), according to the manufacturer's instructions, incubating for 4h prior to measurement.

[4] = biological target: T2, ALK1 (ACVRL1) (Homo sapiens, UniProt P37023); test: KINOMEscan affinity, competition binding
T2 construct: purchased Eurofins (KINOMEscan service)
T2 sequence (P37023 22-503): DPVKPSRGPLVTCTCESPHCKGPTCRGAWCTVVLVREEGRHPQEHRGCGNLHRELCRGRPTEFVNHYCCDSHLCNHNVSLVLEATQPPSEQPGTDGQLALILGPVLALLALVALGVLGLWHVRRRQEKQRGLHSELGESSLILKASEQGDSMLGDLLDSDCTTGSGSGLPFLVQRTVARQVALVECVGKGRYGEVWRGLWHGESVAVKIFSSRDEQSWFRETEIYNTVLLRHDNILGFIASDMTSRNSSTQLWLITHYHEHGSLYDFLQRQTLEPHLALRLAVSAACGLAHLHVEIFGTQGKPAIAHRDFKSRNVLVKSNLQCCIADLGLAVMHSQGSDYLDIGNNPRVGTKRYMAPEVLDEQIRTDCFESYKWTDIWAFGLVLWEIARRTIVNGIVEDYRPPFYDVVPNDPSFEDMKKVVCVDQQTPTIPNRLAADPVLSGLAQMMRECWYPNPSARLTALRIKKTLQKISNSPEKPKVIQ
Procedure: (§1) The affinity, measured as Kd (dissociation constants), of the compound of formula I for the ALK family was determined by using the KINOMEscan™ Technology from Eurofins. Selectivity in front of ALK1 (ACVRL1), ALK2 (ACVR1), ALK3 (BMPR1A), ALK4 (ACVR1B), ALK6 (BMPR1B), ACVR2B and TGFβR2 was determined.
(§2) The KINOMEscan screening platform employs an active-site directed competition binding assay to quantitatively measure interactions between test compounds and kinases.
(§3) The assay is performed by combining three components: DNA-tagged kinase; immobilized ligand; and a test compound. The ability of the test compound to compete with the immobilized ligand is measured via quantitative PCR of the DNA tag.
(§4) Test compounds were prepared as 111× stocks in 100% DMSO. Kds were determined using an 11-point 3-fold compound dilution series with three DMSO control points being the top concentration 30 μM. […] The compounds were then diluted directly into the assays such that the final concentration of DMSO was 0.9%. All reactions performed in polypropylene 384-well plate. Each was a final volume of 0.02 ml. […] The beads were then re-suspended in elution buffer (1×PBS, 0.05% Tween 20, 0.5 μM non-biotinylated affinity ligand) and incubated at room temperature with shaking for 30 minutes. The kinase concentration in the eluates was measured by qPCR.
(§5) Compounds that bind the kinase active site and directly (sterically) or indirectly (allosterically) prevent kinase binding to the immobilized ligand, will reduce the amount of kinase captured on the solid support. […] Dissociation constants (Kds) for test compound-kinase interactions are calculated by measuring the amount of kinase captured on the solid support as a function of the test compound concentration.

[5] = biological target: T3, ALK6 (BMPR1B) (Homo sapiens, UniProt O00238); test: KINOMEscan affinity, competition binding
T3 construct: purchased Eurofins (KINOMEscan service)
T3 sequence (O00238 14-502): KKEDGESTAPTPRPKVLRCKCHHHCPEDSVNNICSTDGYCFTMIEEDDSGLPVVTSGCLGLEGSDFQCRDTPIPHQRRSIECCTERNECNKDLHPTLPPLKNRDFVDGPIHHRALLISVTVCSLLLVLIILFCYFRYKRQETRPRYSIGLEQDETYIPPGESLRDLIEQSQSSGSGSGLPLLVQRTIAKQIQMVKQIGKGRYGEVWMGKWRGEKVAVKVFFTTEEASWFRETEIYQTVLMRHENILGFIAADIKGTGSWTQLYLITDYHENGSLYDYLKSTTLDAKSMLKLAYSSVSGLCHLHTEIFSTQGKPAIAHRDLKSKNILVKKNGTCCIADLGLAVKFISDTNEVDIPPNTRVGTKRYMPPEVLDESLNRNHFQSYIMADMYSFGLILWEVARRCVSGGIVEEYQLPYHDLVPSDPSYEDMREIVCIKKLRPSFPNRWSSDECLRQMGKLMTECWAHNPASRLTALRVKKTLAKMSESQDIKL
Procedure: as §1, §2, §3, §4, §5

[6] = biological target: T4, ALK3 (BMPR1A) (Homo sapiens, UniProt P36894); test: KINOMEscan affinity, competition binding
T4 construct: purchased Eurofins (KINOMEscan service)
T4 sequence (P36894 24-532): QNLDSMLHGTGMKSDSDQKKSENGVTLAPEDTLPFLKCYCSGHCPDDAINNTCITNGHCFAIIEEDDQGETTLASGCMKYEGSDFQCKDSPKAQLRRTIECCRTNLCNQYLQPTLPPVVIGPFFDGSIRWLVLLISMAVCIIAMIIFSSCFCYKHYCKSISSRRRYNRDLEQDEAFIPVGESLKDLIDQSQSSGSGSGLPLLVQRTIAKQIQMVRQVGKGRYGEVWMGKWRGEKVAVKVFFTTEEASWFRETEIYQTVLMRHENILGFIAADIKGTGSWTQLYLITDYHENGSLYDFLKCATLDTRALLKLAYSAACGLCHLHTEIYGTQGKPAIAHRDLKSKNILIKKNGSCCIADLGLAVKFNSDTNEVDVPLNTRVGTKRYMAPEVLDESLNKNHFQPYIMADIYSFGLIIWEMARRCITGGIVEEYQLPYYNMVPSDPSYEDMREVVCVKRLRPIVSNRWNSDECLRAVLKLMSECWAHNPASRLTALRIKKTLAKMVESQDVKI
Procedure: as §1, §2, §3, §4, §5

In the case of `Cc1cccc(-c2nn3c(c2-c2ccnc4ccc(O)cc24)CCC3)n1` [compound of formula I, 4-(2-(6-methylpyridin-2-yl)-5,6-dihydro-4H-pyrrolo[1,2-b]pyrazol-3-yl)quinolin-6-ol], the “Combined side effects per number tested” value ([1]; 0.3x dose) is reported as 0/5, the “Toxicity (%)” value ([1]; 0.3x dose) is reported as 0% and the “Sternum side effect, mice affected per mice tested” value ([1]; 0.3x dose) is reported as 0/5. The “Combined side effects per number tested” value ([1]; 1x dose) was 0/5, the “Toxicity (%)” value ([1]; 1x dose) was 0% and the “Sternum side effect, mice affected per mice tested” value ([1]; 1x dose) was 0/5. The “pathological analysis of the skin and intestine” value ([1]; 1× doses) was “No pathological anomalies”, the “Combined side effects per number tested” value ([1]; 3x dose) was 2/10 and the “Toxicity (%)” value ([1]; 3x dose) was 20%. For the same molecule, the “Long bones side effect, mice affected per mice tested” value ([1]; 3x dose) was 1/5, the “Sternum side effect, mice affected per mice tested” value ([1]; 3x dose) was 1/5 and the “Combined side effects per number tested” value ([1]; 9x dose) was 4/8. For the same molecule, the “Toxicity (%)” value ([1]; 9x dose) was 50%, the “Long bones side effect, mice affected per mice tested” value ([1]; 9x dose) was 3/4 and the “Sternum side effect, mice affected per mice tested” value ([1]; 9x dose) was 1/4. For the same molecule, the “toxic dose (toxicity >50%)” value ([1]; 9× dose equivalent) was 1272 mg/kg/day, the “therapeutic index (toxic dose/effective dose)” value ([1]; dose equivalents) was 30 and the IC50 ([2]; KinaseProfiler, 9-point curve, top 10 μM, read-out: Enzyme activity inhibition IC50 (nM) ALK5 (TGFBR1)) was 177 nM. The “ALK5 enzymatic potency, times more potent than prodrug of formula (III)” value ([2]; from Table 2) was 4.7 times, the “ALK5 enzymatic potency, times more potent than prodrug of formula (IV)” value ([2]; from Table 2) was 12.9 times and the “ALK5 enzymatic potency, times more potent than reference compound 337” value ([2]; from Table 2) was 1.8 times. The “ALK5 enzymatic potency, times more potent than reference compound 338” value ([2]; from Table 2) was 2.1 times, the Cell viability ([3]; 30 μM) was 93% and the Cell viability ([3]; 100 μM) was 64%. The Selectivity improvement ([4]; (I) versus Galunisertib) was 3.8, the “Selectivity against ALK5” value ([4]; ALK1 versus ALK5) was 550 and the “selectivity for ALK5 against ALK1” value ([4]; KINOMEscan) was “greater than 300 fold”. The Selectivity improvement ([5]; (I) versus Galunisertib) was 2.9, the “Selectivity against ALK5” value ([5]; ALK6 versus ALK5) was 8.0 and the “selectivity for ALK5 against ALK6” value ([5]; KINOMEscan) was 8 fold. The Selectivity improvement ([6]; (I) versus Galunisertib) was 3.5, the “Selectivity against ALK5” value ([6]; ALK3 versus ALK5) was 345 and the “selectivity for ALK5 against ALK3” value ([6]; KINOMEscan) was “greater than 300 fold”.

Source: patent US20220089600A1, “TGFß INHIBITOR AND PRODRUGS” (FUNDACIÓ INSTITUT DE RECERCA BIOMÈDICA (IRB BARCELONA), priority 2018, published 2022)
